Results reported in ChEMBL document CHEMBL1201862, “PubChem BioAssay data set” (2004).
The source made the active and inactive calls.

Legend:
Hexokinase HKDC1 = target: T1, Hexokinase HKDC1 (Homo sapiens, UniProt Q2TB90); test: HKDC1 hexokinase activators, dose response, biochemical, W721R variant (AID 504730); type: functional
T1 sequence (Q2TB90 whole entry): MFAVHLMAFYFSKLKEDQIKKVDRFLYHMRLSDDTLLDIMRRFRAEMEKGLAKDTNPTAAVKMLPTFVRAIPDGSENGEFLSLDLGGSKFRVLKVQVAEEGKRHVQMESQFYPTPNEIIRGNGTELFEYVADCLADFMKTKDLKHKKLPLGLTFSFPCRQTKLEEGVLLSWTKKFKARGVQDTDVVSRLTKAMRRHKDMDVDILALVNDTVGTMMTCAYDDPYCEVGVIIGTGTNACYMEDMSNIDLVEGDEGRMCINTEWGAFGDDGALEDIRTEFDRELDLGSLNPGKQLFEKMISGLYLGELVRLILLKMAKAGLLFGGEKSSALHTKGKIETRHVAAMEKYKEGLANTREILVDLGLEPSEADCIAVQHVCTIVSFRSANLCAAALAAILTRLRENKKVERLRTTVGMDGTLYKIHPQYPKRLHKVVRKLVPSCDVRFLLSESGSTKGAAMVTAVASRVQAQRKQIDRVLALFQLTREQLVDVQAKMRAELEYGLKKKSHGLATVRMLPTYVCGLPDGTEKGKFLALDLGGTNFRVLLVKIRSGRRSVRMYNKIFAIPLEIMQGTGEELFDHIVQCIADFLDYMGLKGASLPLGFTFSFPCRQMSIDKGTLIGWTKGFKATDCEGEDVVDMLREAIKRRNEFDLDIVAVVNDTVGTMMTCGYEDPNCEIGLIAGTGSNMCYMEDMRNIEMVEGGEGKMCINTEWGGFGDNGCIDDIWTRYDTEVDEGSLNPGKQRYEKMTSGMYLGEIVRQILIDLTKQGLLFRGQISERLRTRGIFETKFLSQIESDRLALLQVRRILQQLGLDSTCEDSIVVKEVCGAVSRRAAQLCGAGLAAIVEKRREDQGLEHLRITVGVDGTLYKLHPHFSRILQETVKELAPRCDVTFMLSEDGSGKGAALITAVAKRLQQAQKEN

[1] = target: Voltage-dependent T-type calcium channel subunit alpha-1H (Homo sapiens, UniProt O95180); test: Cav3.2 T-type channel inhibitors, cell-based, synthetic library set 1, calcium flux (AID 493022); type: functional
Sequence of Voltage-dependent T-type calcium channel subunit alpha-1H (O95180 whole entry): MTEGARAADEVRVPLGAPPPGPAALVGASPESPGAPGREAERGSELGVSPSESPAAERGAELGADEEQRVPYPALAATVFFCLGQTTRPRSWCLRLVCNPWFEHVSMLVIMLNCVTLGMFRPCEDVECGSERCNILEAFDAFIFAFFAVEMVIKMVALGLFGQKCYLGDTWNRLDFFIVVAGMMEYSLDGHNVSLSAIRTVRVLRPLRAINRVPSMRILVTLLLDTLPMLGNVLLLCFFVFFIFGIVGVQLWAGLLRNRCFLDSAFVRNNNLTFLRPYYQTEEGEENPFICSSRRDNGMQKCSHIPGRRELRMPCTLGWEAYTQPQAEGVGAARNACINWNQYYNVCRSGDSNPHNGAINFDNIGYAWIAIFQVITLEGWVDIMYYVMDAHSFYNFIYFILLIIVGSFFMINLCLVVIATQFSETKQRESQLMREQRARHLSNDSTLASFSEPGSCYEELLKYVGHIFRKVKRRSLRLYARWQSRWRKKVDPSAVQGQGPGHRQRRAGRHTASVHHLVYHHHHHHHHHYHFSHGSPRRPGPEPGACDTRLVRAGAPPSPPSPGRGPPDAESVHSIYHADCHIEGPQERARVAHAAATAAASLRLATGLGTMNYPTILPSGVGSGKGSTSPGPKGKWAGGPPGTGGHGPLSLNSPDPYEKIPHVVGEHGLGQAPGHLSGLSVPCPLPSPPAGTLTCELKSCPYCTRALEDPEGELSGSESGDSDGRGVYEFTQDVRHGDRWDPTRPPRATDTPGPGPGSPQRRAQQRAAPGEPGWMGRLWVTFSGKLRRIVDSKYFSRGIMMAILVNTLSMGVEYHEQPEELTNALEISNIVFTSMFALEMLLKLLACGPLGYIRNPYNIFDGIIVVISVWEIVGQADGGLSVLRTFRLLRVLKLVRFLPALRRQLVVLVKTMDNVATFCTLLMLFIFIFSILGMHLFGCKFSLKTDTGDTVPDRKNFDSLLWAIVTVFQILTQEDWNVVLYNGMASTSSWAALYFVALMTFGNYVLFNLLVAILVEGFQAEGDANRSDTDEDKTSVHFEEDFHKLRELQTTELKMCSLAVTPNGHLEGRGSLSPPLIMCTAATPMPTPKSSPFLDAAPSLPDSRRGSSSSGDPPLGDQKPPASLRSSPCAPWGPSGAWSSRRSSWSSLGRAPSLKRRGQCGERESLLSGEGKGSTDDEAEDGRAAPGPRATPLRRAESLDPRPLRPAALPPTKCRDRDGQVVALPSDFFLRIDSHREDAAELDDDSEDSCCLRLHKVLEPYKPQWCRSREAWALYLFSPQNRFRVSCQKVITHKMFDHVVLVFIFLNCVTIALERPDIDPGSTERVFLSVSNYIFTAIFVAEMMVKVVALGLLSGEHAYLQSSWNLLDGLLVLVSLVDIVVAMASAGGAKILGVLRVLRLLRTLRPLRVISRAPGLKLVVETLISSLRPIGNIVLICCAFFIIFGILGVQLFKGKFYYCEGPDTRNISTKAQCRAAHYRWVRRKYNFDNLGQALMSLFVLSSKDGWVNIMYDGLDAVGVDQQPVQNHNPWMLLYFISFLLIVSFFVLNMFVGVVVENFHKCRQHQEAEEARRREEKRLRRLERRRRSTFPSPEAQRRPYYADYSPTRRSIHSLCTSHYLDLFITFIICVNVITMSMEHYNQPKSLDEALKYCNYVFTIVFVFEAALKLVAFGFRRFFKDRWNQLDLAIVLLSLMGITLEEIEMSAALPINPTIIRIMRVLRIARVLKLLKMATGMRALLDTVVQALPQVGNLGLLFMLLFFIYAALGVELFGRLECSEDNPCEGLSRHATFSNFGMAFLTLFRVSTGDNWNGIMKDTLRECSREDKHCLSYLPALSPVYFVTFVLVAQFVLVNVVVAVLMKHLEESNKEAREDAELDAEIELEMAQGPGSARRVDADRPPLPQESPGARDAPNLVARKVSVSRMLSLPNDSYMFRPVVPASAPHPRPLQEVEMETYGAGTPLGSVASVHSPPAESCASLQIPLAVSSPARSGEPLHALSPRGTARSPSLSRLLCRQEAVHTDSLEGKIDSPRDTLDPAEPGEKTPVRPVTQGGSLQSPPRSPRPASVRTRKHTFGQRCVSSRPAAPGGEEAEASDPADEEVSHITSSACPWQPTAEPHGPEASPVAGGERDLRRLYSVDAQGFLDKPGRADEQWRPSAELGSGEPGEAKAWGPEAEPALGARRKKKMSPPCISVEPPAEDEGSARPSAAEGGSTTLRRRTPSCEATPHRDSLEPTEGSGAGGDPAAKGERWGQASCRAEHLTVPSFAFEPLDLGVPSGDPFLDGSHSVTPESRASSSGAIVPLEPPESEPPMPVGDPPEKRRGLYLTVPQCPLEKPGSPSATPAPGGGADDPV

Hexokinase = Hexokinase (Trypanosoma brucei, UniProt Q38C41); test: Confirmation assay for inhibitors of Trypanosoma brucei hexokinase 1-Analogue-first series. [Related pubchem assays (depositor defined):AID1430, AID1632, AID2516, AID2560, AID2579, AID2600, AID449725, AID492951]; type: functional
Sequence of Hexokinase (Q38C41 whole entry, the tested form may be a part): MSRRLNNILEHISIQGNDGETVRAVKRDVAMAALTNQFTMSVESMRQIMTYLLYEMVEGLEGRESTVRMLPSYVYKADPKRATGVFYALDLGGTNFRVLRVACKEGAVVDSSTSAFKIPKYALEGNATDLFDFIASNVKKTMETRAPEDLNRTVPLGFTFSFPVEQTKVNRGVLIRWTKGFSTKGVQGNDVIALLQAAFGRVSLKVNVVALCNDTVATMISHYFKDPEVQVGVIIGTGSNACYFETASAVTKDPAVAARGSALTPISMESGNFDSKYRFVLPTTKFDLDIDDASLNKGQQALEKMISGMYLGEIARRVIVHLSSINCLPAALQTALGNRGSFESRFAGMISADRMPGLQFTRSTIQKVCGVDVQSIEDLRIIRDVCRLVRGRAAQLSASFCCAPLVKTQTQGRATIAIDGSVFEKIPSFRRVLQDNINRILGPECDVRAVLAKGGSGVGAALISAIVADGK

[2] = target: T2, RNA-binding protein pos-1 (Caenorhabditis elegans, UniProt G5EF15); test: inhibitors of POS-1/mex-3 RNA binding, dose response, biochemical, fluorescence polarization (AID 1964);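 also: purified POS-1 fused to maltose binding protein made in E. coli; potency of compounds blocking POS-1 binding to fluorescent RNA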
T2 sequence (G5EF15 whole entry): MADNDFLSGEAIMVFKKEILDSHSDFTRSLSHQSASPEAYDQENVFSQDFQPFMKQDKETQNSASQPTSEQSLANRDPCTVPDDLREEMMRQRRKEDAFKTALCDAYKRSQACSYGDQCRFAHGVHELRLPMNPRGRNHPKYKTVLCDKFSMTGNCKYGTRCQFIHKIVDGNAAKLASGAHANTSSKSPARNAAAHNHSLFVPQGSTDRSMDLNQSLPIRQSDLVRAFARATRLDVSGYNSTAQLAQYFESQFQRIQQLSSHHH

[3] = target: T3, Zinc finger protein mex-5 (Caenorhabditis elegans, UniProt Q9XUB2); test: MEX-5/TCR-2 RNA interaction inhibitors, dose response, biochemical, C. elegans, fluorescence polarization (AID 1960)
T3 sequence (Q9XUB2 whole entry): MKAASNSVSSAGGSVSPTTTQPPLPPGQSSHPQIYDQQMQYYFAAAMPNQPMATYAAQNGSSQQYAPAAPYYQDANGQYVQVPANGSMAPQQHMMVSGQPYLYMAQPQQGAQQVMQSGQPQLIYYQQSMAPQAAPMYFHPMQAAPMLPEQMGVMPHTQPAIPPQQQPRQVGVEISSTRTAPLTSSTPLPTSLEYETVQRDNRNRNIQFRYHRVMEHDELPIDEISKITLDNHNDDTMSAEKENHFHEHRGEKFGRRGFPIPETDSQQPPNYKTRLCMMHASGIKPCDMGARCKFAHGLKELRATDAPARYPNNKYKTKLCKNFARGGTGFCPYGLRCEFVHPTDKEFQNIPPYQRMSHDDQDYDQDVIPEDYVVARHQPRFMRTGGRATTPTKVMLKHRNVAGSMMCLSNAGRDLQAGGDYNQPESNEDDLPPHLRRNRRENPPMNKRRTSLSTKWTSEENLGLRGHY

ORF 73 = ORF 73 (Human herpesvirus 8, UniProt O40947); test: inhibitors of C-LANA binding to LBS DNA, dose response, biochemical, fluorescence polarization, cherry-picked samples (AID 504725); design: species or system Human gammaherpesvirus 8;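 also: fluorescence polarization of a labeled DNA duplex reporting LANA DNA binding; potency is for inhibitors that block LANA binding to the DNA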
Sequence of ORF 73 (O40947 whole entry): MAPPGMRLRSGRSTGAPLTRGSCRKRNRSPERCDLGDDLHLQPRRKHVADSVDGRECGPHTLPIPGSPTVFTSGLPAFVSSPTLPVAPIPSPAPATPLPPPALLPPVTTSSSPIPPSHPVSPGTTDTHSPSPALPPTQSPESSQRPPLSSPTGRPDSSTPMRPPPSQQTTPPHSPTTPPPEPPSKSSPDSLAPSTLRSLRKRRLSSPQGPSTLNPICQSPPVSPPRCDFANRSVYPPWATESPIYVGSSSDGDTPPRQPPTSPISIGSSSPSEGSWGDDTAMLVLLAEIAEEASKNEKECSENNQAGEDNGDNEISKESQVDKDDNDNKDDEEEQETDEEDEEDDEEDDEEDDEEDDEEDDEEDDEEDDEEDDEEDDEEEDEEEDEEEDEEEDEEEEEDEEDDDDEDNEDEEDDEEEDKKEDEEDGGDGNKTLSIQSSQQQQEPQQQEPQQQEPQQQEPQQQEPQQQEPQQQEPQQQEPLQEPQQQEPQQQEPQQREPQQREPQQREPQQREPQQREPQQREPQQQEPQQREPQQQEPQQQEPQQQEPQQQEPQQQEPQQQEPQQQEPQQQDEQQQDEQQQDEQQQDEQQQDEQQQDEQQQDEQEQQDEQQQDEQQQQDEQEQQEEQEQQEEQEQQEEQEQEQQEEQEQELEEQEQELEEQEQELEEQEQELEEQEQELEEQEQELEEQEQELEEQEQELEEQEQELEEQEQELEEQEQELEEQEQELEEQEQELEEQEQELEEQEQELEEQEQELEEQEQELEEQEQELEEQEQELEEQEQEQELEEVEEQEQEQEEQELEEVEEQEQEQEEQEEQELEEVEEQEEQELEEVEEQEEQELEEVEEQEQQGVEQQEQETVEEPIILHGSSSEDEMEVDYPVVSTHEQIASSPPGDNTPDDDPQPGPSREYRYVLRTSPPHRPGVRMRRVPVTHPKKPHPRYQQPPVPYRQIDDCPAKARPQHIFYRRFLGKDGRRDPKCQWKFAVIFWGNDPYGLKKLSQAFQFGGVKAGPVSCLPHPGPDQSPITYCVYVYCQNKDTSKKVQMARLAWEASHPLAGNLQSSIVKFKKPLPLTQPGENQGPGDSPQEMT

[4] = target: T4, Corticotropin-releasing factor receptor 2/Corticotropin-releasing factor-binding protein (Homo sapiens, UniProt P24387+Q13324); test: activators of CRF receptor 2 with binding protein – uHTS hits, confirmation (AID 602473); type: functional; details: read-out: EC50_Mean
T4 sequence (Q13324 whole entry): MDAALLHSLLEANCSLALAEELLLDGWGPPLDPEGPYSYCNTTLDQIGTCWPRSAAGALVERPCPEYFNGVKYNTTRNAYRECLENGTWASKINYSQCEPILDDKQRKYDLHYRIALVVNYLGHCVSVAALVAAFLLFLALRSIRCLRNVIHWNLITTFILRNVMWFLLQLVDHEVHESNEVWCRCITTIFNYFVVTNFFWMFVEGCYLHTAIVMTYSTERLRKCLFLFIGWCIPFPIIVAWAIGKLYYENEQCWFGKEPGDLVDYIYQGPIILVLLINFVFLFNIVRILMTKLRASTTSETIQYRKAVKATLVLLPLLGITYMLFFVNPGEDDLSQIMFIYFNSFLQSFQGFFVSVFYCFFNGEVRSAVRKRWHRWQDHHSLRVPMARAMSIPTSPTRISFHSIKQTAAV
T4 sequence (P24387 whole entry): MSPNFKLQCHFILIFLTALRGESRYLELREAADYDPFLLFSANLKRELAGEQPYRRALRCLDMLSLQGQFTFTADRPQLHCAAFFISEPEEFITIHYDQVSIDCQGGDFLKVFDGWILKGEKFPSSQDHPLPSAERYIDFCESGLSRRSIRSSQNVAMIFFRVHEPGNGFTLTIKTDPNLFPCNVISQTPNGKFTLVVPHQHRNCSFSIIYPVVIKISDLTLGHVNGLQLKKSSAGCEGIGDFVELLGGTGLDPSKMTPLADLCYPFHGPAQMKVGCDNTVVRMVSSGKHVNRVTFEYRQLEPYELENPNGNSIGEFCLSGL

[5] = target: T5, Short transient receptor potential channel 4 (Mus musculus, UniProt Q9QUQ5); test: TRPC4 positive allosteric modulators, dose response, cell-based, HEK293 TRPC4/mu-opioid, Fluo-4 calcium, EC20 DAMGO (AID 434941); type: functional
T5 sequence (Q9QUQ5 whole entry): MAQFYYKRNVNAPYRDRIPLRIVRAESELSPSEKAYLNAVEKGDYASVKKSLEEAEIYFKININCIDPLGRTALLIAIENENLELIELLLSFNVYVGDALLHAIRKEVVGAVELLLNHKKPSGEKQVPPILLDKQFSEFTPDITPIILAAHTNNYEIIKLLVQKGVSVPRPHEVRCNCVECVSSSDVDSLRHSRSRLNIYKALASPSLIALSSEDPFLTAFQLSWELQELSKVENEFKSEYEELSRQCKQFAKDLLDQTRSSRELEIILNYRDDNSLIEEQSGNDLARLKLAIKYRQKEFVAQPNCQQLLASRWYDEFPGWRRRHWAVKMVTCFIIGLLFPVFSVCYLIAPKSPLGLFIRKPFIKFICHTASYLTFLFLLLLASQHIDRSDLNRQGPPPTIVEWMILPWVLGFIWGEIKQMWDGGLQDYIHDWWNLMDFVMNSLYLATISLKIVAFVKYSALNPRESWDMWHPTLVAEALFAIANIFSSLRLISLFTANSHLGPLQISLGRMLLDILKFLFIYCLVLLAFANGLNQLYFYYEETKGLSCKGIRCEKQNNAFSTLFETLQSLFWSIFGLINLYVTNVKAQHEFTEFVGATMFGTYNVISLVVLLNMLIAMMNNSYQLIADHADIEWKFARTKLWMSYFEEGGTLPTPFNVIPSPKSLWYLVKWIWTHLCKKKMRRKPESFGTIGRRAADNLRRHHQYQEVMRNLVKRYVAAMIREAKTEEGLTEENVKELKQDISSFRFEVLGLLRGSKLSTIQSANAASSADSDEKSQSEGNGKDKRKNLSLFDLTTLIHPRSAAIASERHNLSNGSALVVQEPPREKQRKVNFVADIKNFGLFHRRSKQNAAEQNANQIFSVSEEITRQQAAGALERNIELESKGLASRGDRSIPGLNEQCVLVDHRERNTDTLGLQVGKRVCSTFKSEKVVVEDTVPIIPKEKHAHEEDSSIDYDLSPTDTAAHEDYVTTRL

[6] = target: T5, Short transient receptor potential channel 4; test: mouse TRPC4 channel activators, dose response, cell-based, HEK293 TRPC4/mu-opioid, Fluo-4 calcium (AID 434937); type: functional
Troponin, cardiac muscle = Troponin, cardiac muscle (Homo sapiens, UniProt P19429+P45379+P63316); test: Fluorescence-based biochemical high throughput dose response assay for activators of the calcium sensitivity of cardiac Regulated Thin Filaments (RTF). [Related pubchem assays (depositor defined):AID493008, AID493018, AID504382, AID504383]; type: protein-complex assay
Aminopeptidase N = target: T6, Aminopeptidase N (Plasmodium falciparum FcB1/Columbia, UniProt O96935); test: P. falciparum M1AAP inhibitors, biochemical, fluorogenic H-Leu-NHMec substrate, 1536-well (AID 1445); design: species or system Plasmodium falciparum 3D7, 3D7
T6 sequence (O96935 whole entry): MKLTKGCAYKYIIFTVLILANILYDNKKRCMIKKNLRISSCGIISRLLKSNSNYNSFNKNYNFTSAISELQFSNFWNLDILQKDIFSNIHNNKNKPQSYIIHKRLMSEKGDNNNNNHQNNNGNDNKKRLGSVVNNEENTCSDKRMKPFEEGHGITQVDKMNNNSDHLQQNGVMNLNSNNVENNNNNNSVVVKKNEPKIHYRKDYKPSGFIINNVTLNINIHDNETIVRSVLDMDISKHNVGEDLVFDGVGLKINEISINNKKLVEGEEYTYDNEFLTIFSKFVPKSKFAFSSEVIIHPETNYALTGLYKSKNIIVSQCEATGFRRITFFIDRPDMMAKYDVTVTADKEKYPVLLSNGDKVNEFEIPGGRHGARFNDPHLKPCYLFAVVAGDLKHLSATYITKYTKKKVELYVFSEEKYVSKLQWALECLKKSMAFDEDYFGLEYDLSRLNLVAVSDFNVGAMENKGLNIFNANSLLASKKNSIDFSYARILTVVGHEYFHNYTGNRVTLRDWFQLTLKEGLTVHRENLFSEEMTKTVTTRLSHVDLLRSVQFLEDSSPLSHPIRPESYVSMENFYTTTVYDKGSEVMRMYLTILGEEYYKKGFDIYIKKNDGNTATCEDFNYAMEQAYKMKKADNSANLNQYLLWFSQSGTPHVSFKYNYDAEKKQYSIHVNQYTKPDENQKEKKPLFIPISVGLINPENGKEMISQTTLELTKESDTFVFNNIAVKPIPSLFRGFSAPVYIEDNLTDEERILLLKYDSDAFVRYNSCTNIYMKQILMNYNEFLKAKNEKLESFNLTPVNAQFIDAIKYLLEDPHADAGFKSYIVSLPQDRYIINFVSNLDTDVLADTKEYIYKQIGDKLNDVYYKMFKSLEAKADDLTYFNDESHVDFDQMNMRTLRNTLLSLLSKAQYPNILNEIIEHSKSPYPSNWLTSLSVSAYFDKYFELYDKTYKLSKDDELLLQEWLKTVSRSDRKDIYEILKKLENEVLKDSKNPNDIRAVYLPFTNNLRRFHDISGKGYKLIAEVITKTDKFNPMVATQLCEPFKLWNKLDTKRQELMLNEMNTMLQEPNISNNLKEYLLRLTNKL

[7] = target: T7, Calpain-2 catalytic subunit (Sus scrofa, UniProt P43367); test: pig calpain II inhibitor potency, dose response, biochemical, fluorogenic peptide substrate (AID 1420); type: functional
T7 sequence (P43367 whole entry): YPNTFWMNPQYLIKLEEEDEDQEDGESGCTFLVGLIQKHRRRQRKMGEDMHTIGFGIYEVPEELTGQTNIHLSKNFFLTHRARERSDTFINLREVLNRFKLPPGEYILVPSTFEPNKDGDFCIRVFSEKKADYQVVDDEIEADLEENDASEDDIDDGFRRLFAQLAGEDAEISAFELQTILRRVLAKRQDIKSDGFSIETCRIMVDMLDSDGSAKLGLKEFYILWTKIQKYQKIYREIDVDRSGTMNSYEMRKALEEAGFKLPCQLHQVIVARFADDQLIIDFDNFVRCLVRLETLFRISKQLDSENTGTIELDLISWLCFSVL

SMILES: COc1ccc(NC(=O)Cc2c[nH]c3ccccc23)cc1S(=O)(=O)N1CCCCC1
- EC50 (Hexokinase HKDC1): > 80 µM (inactive)

SMILES: CC(Oc1ccccc1)C(=O)Nc1nnc(-c2ccc3c(c2)OCCO3)o1 (stereo unspecified)
- EC50 [1]: 10 µM (active)

SMILES: Cc1ccccc1NC(=O)Cn1sc2ccccc2c1=O
- IC50 (Hexokinase): 8.52 µM (active)

SMILES: O=C(c1ccccc1)n1sc2ccccc2c1=O
- IC50 (Hexokinase): > 25 µM (inactive)

SMILES: Clc1ccc(C2=CC(c3ccco3)n3ncnc3N2)cc1 (stereo unspecified)
- EC50 [2]: 24.7 µM (inconclusive)
- EC50 [3]: 3.36 µM (active)
- AC50 (ORF 73): 171 µM (active)
- EC50 [4]: 8.29 µM (active)

SMILES: CCOC(=O)c1c(NC(=O)COC(=O)Cc2c[nH]c3ccccc23)sc(C(=O)N(C)C)c1C
- EC50 [5]: 0.42 µM (active)
- EC50 [6]: 5.96 µM (active)

SMILES: COc1ccccc1NS(=O)(=O)c1cc([N+](=O)[O-])ccc1N/N=C/c1c(C)[nH]c2ccccc12
- EC50 (Troponin, cardiac muscle): 2.57 µM (active)

SMILES: COc1ccc(/C=C/C(=O)NC(=S)Nc2ccc(C(=O)O)cc2)cc1
- IC50 (Aminopeptidase N): 53 µM (active)
- IC50 [7]: > 50 µM (not active)
- EC50 (Troponin, cardiac muscle): > 71.5 µM (inactive)

SMILES: COc1ccc(Cl)cc1C(=O)NCCN(C)C
- EC50 [5]: 0.67 µM (active)

SMILES: O=C(COc1ccc(F)cc1Cl)Nc1nnc(-c2ccc(F)c(F)c2)o1
- EC50 [1]: 1.1 µM (active)
